Data on four molecules can be found in ChEMBL document CHEMBL4680222, “Sensitive fluorogenic substrates for sirtuin deacylase inhibitor discovery” (Eur J Med Chem, 2020).

Assay [1] has as its target T1, NAD-dependent protein deacetylase sirtuin-2 (Homo sapiens, UniProt Q8IXJ6).
T1 sequence (Q8IXJ6 whole entry): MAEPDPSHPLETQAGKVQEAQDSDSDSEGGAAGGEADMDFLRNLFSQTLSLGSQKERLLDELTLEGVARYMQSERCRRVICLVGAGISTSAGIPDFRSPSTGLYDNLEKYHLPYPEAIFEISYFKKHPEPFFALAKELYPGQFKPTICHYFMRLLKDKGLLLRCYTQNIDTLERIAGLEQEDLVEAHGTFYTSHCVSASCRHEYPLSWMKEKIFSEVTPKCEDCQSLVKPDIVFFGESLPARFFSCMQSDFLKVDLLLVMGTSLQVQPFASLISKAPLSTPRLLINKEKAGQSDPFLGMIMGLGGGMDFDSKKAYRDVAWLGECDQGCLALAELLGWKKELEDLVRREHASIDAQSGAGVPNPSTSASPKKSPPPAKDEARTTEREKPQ
Nature of the assay: Inhibition of human N-terminal His-tagged SIRT2 (56 to 356 residues) expressed in Escherichia coli using Ac-Arg-Leu-Ile-Lys(Ac)-AMC as substrate preincubated for 10 mins followed by substrate addition and measured after 30 mins in presence of NAD+ by fluorescence assay.

The target in assay [2] is T1, NAD-dependent protein deacetylase sirtuin-2. The assay can be described thus: Inhibition of human N-terminal His-tagged SIRT2 (56 to 356 residues) expressed in Escherichia coli using Ac-Ser-Ser-Ile-Lys(De)-AMC as substrate preincubated for 10 mins followed by substrate addition and measured after 30 mins in presence of NAD+ by fluorescence assay.
Assay [3] addresses T2, NAD-dependent protein deacetylase sirtuin-1 (Homo sapiens, UniProt Q96EB6).
T2 sequence (Q96EB6 whole entry): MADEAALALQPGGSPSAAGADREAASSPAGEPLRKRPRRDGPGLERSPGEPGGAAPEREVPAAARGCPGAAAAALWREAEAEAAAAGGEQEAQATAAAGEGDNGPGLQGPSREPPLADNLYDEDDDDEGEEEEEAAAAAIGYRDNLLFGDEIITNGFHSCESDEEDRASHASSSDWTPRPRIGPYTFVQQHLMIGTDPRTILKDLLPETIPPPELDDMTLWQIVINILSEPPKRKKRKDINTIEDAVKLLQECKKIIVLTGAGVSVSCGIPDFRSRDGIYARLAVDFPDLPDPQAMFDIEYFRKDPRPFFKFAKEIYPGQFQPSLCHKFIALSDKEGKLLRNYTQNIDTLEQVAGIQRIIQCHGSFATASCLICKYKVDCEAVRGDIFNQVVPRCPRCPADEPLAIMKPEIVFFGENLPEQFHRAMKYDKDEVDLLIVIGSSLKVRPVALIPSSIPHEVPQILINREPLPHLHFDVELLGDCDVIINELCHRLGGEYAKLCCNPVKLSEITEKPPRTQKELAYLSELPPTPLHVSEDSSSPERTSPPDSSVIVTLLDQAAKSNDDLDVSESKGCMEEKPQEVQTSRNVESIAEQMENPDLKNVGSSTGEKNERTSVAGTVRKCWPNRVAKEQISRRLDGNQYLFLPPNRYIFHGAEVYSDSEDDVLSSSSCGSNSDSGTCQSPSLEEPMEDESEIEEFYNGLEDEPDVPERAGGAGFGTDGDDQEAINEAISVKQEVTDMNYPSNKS
Nature of the assay: Inhibition of human N-terminal His-tagged SIRT1 (183 to 664 residues) expressed in Escherichia coli using Ac-Arg-Leu-Ile-Lys(Ac)-AMC as substrate preincubated for 10 mins followed by substrate addition and measured after 30 mins in presence of NAD+ by fluorescence assay.

In assay [4] the target is T2, NAD-dependent protein deacetylase sirtuin-1. Nature of the assay: Inhibition of human N-terminal His-tagged SIRT1 (183 to 664 residues) expressed in Escherichia coli using Ac-Tyr-Lys-Leu-Lys(Ac)-AMC as substrate preincubated for 10 mins followed by substrate addition and measured after 30 mins in presence of NAD+ by fluorescence assay.
The target in assay [5] is T3, NAD-dependent protein deacylase sirtuin-5, mitochondrial (Homo sapiens, UniProt Q9NXA8). Nature of the assay: Inhibition of human N-terminal His-tagged SIRT5 (34 to 302 residues) expressed in Escherichia coli using Ac-Leu-Gly-Ser-Lys(Su)-AMC as substrate preincubated for 10 mins followed by substrate addition and measured after 30 mins in presence of NAD+ by fluorescence assay.

Assay [6] has as its target T3, NAD-dependent protein deacylase sirtuin-5, mitochondrial. Nature of the assay: Inhibition of human N-terminal His-tagged SIRT5 (34 to 302 residues) expressed in Escherichia coli using Ac-His-Phe-Ser-Lys(Su)-AMC as substrate preincubated for 10 mins followed by substrate addition and measured after 30 mins in presence of NAD+ by fluorescence assay.
Assay [7] has the same target. The assay can be described thus: Inhibition of human N-terminal His-tagged SIRT5 (34 to 302 residues) expressed in Escherichia coli using Ac-Tyr-Lys-Leu-Lys(Ac)-AMC as substrate preincubated for 10 mins followed by substrate addition and measured after 30 mins in presence of NAD+ by fluorescence assay.

Where only a bound is given, the exact number is not on record here.

T3 sequence (Q9NXA8 whole entry, the tested form may be a part): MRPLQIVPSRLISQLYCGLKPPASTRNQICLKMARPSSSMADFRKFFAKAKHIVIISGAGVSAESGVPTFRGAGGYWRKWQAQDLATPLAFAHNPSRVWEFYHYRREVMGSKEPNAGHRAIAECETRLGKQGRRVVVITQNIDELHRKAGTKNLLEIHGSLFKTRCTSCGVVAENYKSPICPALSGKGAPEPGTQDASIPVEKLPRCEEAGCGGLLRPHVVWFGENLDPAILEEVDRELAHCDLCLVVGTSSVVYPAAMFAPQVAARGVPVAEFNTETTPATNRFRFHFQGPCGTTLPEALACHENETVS

As for `Cc1ccc(C(=O)Nc2ccc(S(=O)(=O)O)c3cc(S(=O)(=O)O)cc(S(=O)(=O)O)c23)cc1NC(=O)c1cccc(NC(=O)Nc2cccc(C(=O)Nc3cc(C(=O)Nc4ccc(S(=O)(=O)O)c5cc(S(=O)(=O)O)cc(S(=O)(=O)O)c45)ccc3C)c2)c1` [SURAMIN], the IC50 is 2.2 µM in assay [1] and 23.3 µM in assay [2].

For the molecule `c1cncc(-c2c[nH]nn2)c1`, the 50% inhibitory concentration (IC50) amounted to 261 µM in assay [3] and 146 µM in assay [4].

As to `CC(C)c1ccccc1Cc1cc(C(=O)Nc2ccc(S(=O)(=O)c3ccccc3C(C)(C)C)cc2)c(O)c(O)c1O`, the IC50 is 6.1 µM in assay [5], 6.6 µM in assay [6] and 21.9 µM in assay [7].

`NC(=O)C1CCCc2c1[nH]c1ccc(Cl)cc21` (centres undefined): the IC50 in assay [5] and in assay [7] was greater than 200 µM each time.
